{"source": "ChEMBL document CHEMBL1201862", "about": "“PubChem BioAssay data set” (2004)", "assay_in_all_cases": "DTP human tumour cell line panel, 48 h", "key": {"A549": {"system": "A549"}, "CAKI-1": {"system": "CAKI-1"}, "EKVX": {"system": "EKVX"}, "HCT-15": {"system": "HCT-15"}, "HL-60": {"system": "HL-60"}, "HT-29": {"system": "HT-29"}, "IGROV-1": {"system": "IGROV-1"}, "NCI-H226": {"system": "NCI-H226"}, "NCI-H460": {"system": "NCI-H460"}, "OVCAR-4": {"system": "OVCAR-4"}, "RXF 393": {"system": "RXF 393"}, "SK-MEL-28": {"system": "SK-MEL-28"}, "SK-MEL-5": {"system": "SK-MEL-5"}, "TK-10": {"system": "TK-10"}, "UACC-62": {"system": "UACC-62"}, "OVCAR-8": {"system": "OVCAR-8"}, "SN12C": {"system": "SN12C"}, "SR": {"system": "SR"}}, "note": "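Growth conditions: 96-well plates. Treatment: test compound, 48 hours, 5 concentrations. Analysis: linear interpolation between bracketing concentrations; unreached endpoints set to highest concentration. GI50: concentration for 50% inhibition of growth.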 The source made the active and inactive calls. No stated cut-off is given here; in the data, active = GI50 up to about 1.1 µM and inactive = higher."}
{"compound": "NN/C(Cc1ccccc1)=N\\NO", "values": [{"measurement": "GI50", "setting": "A549", "result": "> 100 µM (inactive)"}, {"measurement": "GI50", "setting": "CAKI-1", "result": "> 100 µM (inactive)"}, {"measurement": "GI50", "setting": "EKVX", "result": "> 100 µM (inactive)"}, {"measurement": "GI50", "setting": "HCT-15", "result": 26.8, "unit": "µM"}, {"measurement": "GI50", "setting": "HL-60", "result": "> 100 µM (inactive)"}, {"measurement": "GI50", "setting": "HT-29", "result": "> 100 µM (inactive)"}, {"measurement": "GI50", "setting": "IGROV-1", "result": "> 100 µM (inactive)"}, {"measurement": "GI50", "setting": "NCI-H226", "result": "> 100 µM (inactive)"}, {"measurement": "GI50", "setting": "NCI-H460", "result": "> 100 µM (inactive)"}, {"measurement": "GI50", "setting": "OVCAR-4", "result": "> 100 µM (inactive)"}, {"measurement": "GI50", "setting": "RXF 393", "result": "> 100 µM (inactive)"}, {"measurement": "GI50", "setting": "SK-MEL-28", "result": "> 100 µM (inactive)"}, {"measurement": "GI50", "setting": "SK-MEL-5", "result": "53.7 µM (inactive)"}, {"measurement": "GI50", "setting": "TK-10", "result": "> 100 µM (inactive)"}, {"measurement": "GI50", "setting": "UACC-62", "result": "56.2 µM (inactive)"}]}
{"compound": "C=CCc1cc(OC)c2c(c1)C(OC)CC(c1ccc(OC)c(OC)c1)O2", "note": "(stereo not drawn)", "values": [{"measurement": "GI50", "setting": "A549", "result": "> 100 µM (inactive)"}, {"measurement": "GI50", "setting": "CAKI-1", "result": "94.8 µM (inactive)"}, {"measurement": "GI50", "setting": "EKVX", "result": "> 100 µM (inactive)"}, {"measurement": "GI50", "setting": "HCT-15", "result": 61.5, "unit": "µM"}, {"measurement": "GI50", "setting": "HL-60", "result": "75 µM (inactive)"}, {"measurement": "GI50", "setting": "HT-29", "result": "> 100 µM (inactive)"}, {"measurement": "GI50", "setting": "IGROV-1", "result": "> 100 µM (inactive)"}, {"measurement": "GI50", "setting": "NCI-H460", "result": "> 100 µM (inactive)"}, {"measurement": "GI50", "setting": "OVCAR-4", "result": "> 100 µM (inactive)"}, {"measurement": "GI50", "setting": "OVCAR-8", "result": "> 100 µM (inactive)"}, {"measurement": "GI50", "setting": "SK-MEL-28", "result": "> 100 µM (inactive)"}, {"measurement": "GI50", "setting": "SK-MEL-5", "result": "> 100 µM (inactive)"}, {"measurement": "GI50", "setting": "SN12C", "result": "> 100 µM (inactive)"}, {"measurement": "GI50", "setting": "TK-10", "result": "> 100 µM (inactive)"}, {"measurement": "GI50", "setting": "UACC-62", "result": "> 100 µM (inactive)"}]}
{"compound": "Cc1nc(-c2nc(C)c(C(=O)NN(C)C)s2)sc1C(=O)NN(C)C", "values": [{"measurement": "GI50", "setting": "CAKI-1", "result": "> 100 µM (inactive)"}, {"measurement": "GI50", "setting": "EKVX", "result": "> 100 µM (inactive)"}, {"measurement": "GI50", "setting": "HCT-15", "result": 67.9, "unit": "µM"}, {"measurement": "GI50", "setting": "HL-60", "result": "43 µM (inactive)"}, {"measurement": "GI50", "setting": "HT-29", "result": "> 100 µM (inactive)"}, {"measurement": "GI50", "setting": "IGROV-1", "result": "> 100 µM (inactive)"}, {"measurement": "GI50", "setting": "NCI-H226", "result": "> 100 µM (inactive)"}, {"measurement": "GI50", "setting": "NCI-H460", "result": "> 100 µM (inactive)"}, {"measurement": "GI50", "setting": "OVCAR-4", "result": "53 µM (inactive)"}, {"measurement": "GI50", "setting": "OVCAR-8", "result": "> 100 µM (inactive)"}, {"measurement": "GI50", "setting": "SK-MEL-28", "result": "> 100 µM (inactive)"}, {"measurement": "GI50", "setting": "SK-MEL-5", "result": "> 100 µM (inactive)"}, {"measurement": "GI50", "setting": "SN12C", "result": "> 100 µM (inactive)"}, {"measurement": "GI50", "setting": "SR", "result": "19.7 µM (inactive)"}, {"measurement": "GI50", "setting": "TK-10", "result": "> 100 µM (inactive)"}, {"measurement": "GI50", "setting": "UACC-62", "result": "> 100 µM (inactive)"}]}
{"compound": "COc1cc(OC)c(C2c3cc4c(cc3OC(N3CCOCC3)C2C)OCO4)c(OC)c1", "note": "(stereo not drawn)", "values": [{"measurement": "GI50", "setting": "A549", "result": "45.9 µM (inactive)"}, {"measurement": "GI50", "setting": "EKVX", "result": "80.5 µM (inactive)"}, {"measurement": "GI50", "setting": "HCT-15", "result": 17.4, "unit": "µM"}, {"measurement": "GI50", "setting": "HT-29", "result": "21.9 µM (inactive)"}, {"measurement": "GI50", "setting": "IGROV-1", "result": "22.1 µM (inactive)"}, {"measurement": "GI50", "setting": "NCI-H460", "result": "16.4 µM (inactive)"}, {"measurement": "GI50", "setting": "OVCAR-8", "result": "43.6 µM (inactive)"}, {"measurement": "GI50", "setting": "SK-MEL-28", "result": "> 100 µM (inactive)"}, {"measurement": "GI50", "setting": "SK-MEL-5", "result": "47 µM (inactive)"}, {"measurement": "GI50", "setting": "SN12C", "result": "67 µM (inactive)"}, {"measurement": "GI50", "setting": "SR", "result": "18 µM (inactive)"}, {"measurement": "GI50", "setting": "TK-10", "result": "> 100 µM (inactive)"}, {"measurement": "GI50", "setting": "UACC-62", "result": "29.9 µM (inactive)"}]}
{"compound": "C=CCOC(=O)C1CCC(=O)N1C(=O)C(Cl)Cl", "note": "(stereo not drawn)", "values": [{"measurement": "GI50", "setting": "A549", "result": "> 100 µM (inactive)"}, {"measurement": "GI50", "setting": "CAKI-1", "result": "> 100 µM (inactive)"}, {"measurement": "GI50", "setting": "EKVX", "result": "> 100 µM (inactive)"}, {"measurement": "GI50", "setting": "HCT-15", "result": "> 100", "unit": "µM"}, {"measurement": "GI50", "setting": "HL-60", "result": "> 100 µM (inactive)"}, {"measurement": "GI50", "setting": "HT-29", "result": "> 100 µM (inactive)"}, {"measurement": "GI50", "setting": "IGROV-1", "result": "> 100 µM (inactive)"}, {"measurement": "GI50", "setting": "NCI-H226", "result": "> 100 µM (inactive)"}, {"measurement": "GI50", "setting": "NCI-H460", "result": "> 100 µM (inactive)"}, {"measurement": "GI50", "setting": "OVCAR-4", "result": "> 100 µM (inactive)"}, {"measurement": "GI50", "setting": "OVCAR-8", "result": "> 100 µM (inactive)"}, {"measurement": "GI50", "setting": "SK-MEL-28", "result": "> 100 µM (inactive)"}, {"measurement": "GI50", "setting": "SK-MEL-5", "result": "> 100 µM (inactive)"}, {"measurement": "GI50", "setting": "SN12C", "result": "> 100 µM (inactive)"}, {"measurement": "GI50", "setting": "TK-10", "result": "> 100 µM (inactive)"}, {"measurement": "GI50", "setting": "UACC-62", "result": "> 100 µM (inactive)"}]}
{"compound": "O=C(CC1(O)C(=O)Nc2c(Cl)cc(Cl)cc21)c1ccccc1", "note": "(stereo not drawn)", "values": [{"measurement": "GI50", "setting": "A549", "result": "> 100 µM (inactive)"}, {"measurement": "GI50", "setting": "CAKI-1", "result": "> 100 µM (inactive)"}, {"measurement": "GI50", "setting": "EKVX", "result": "82.4 µM (inactive)"}, {"measurement": "GI50", "setting": "HCT-15", "result": 80.9, "unit": "µM"}, {"measurement": "GI50", "setting": "HL-60", "result": "37 µM (inactive)"}, {"measurement": "GI50", "setting": "HT-29", "result": "31.6 µM (inactive)"}, {"measurement": "GI50", "setting": "IGROV-1", "result": "> 100 µM (inactive)"}, {"measurement": "GI50", "setting": "NCI-H226", "result": "> 100 µM (inactive)"}, {"measurement": "GI50", "setting": "NCI-H460", "result": "> 100 µM (inactive)"}, {"measurement": "GI50", "setting": "OVCAR-4", "result": "39.2 µM (inactive)"}, {"measurement": "GI50", "setting": "OVCAR-8", "result": "71.8 µM (inactive)"}, {"measurement": "GI50", "setting": "RXF 393", "result": "> 100 µM (inactive)"}, {"measurement": "GI50", "setting": "SK-MEL-28", "result": "> 100 µM (inactive)"}, {"measurement": "GI50", "setting": "SK-MEL-5", "result": "60.3 µM (inactive)"}, {"measurement": "GI50", "setting": "SN12C", "result": "> 100 µM (inactive)"}, {"measurement": "GI50", "setting": "TK-10", "result": "> 100 µM (inactive)"}, {"measurement": "GI50", "setting": "UACC-62", "result": "59.4 µM (inactive)"}]}
{"compound": "CC(=O)NC(CCCCN)C(=O)NCc1ccccc1", "note": "(stereo not drawn)", "values": [{"measurement": "GI50", "setting": "A549", "result": "> 100 µM (inactive)"}, {"measurement": "GI50", "setting": "CAKI-1", "result": "> 100 µM (inactive)"}, {"measurement": "GI50", "setting": "EKVX", "result": "> 100 µM (inactive)"}, {"measurement": "GI50", "setting": "HCT-15", "result": "> 100", "unit": "µM"}, {"measurement": "GI50", "setting": "HT-29", "result": "> 100 µM (inactive)"}, {"measurement": "GI50", "setting": "IGROV-1", "result": "> 100 µM (inactive)"}, {"measurement": "GI50", "setting": "NCI-H226", "result": "> 100 µM (inactive)"}, {"measurement": "GI50", "setting": "NCI-H460", "result": "> 100 µM (inactive)"}, {"measurement": "GI50", "setting": "OVCAR-4", "result": "> 100 µM (inactive)"}, {"measurement": "GI50", "setting": "OVCAR-8", "result": "> 100 µM (inactive)"}, {"measurement": "GI50", "setting": "RXF 393", "result": "> 100 µM (inactive)"}, {"measurement": "GI50", "setting": "SK-MEL-28", "result": "> 100 µM (inactive)"}, {"measurement": "GI50", "setting": "SK-MEL-5", "result": "> 100 µM (inactive)"}, {"measurement": "GI50", "setting": "SN12C", "result": "> 100 µM (inactive)"}, {"measurement": "GI50", "setting": "TK-10", "result": "> 100 µM (inactive)"}, {"measurement": "GI50", "setting": "UACC-62", "result": "> 100 µM (inactive)"}]}
